The text below walks through data of the OligoGym collection.

HELM strings list units from the 5' end as sugar, base in round brackets, then linkage (d deoxyribose, r ribose, m 2'-O-methyl, p phosphodiester). Strings are as the collection lists them; they lack the last nucleoside at the 3' end of the tested compound. [moe] = 2'-O-(2-methoxyethyl) (MOE); [sp] = phosphorothioate linkage; [m5C] = 5-methylcytosine

This series concerns the target ATXN2. Kind of series: mouse, dose not given. Conditions: ASO.

For the substance “RNA1{[moe](T)[sp].[moe](A)p.[moe](A)p.[moe](T)p.[moe](A)p.d(T)[sp].d(T)[sp].d([m5C])[sp].d([m5C])[sp].d(A)[sp].d(T)[sp].d(A)[sp].d([m5C])[sp].d(A)[sp].d(G)[sp].[moe](A)p.[moe](T)p.[moe]([m5C])[sp].[moe](G)}$$$$ (last 3' nucleoside missing)”, the 3 h FOB score turned out to be 0 score 0-7.
The substance “RNA1{[moe](A)[sp].[moe]([m5C])p.[moe](T)p.[moe](T)p.[moe](T)p.[moe](T)p.d([m5C])[sp].d(T)[sp].d([m5C])[sp].d(A)[sp].d(T)[sp].d(G)[sp].d(T)[sp].d(G)[sp].d([m5C])[sp].d(G)[sp].[moe](G)p.[moe]([m5C])[sp].[moe](A)}$$$$ (last 3' nucleoside missing)” yielded a 3 h FOB score of 6.5 score 0-7.
Substance “RNA1{[moe](G)[sp].[moe](G)p.[moe]([m5C])p.[moe](T)p.[moe](G)p.d(G)[sp].d(A)[sp].d(A)[sp].d(G)[sp].d(T)[sp].d([m5C])[sp].d(T)[sp].d(G)[sp].d(A)[sp].d(A)[sp].[moe]([m5C])p.[moe]([m5C])p.[moe]([m5C])[sp].[moe]([m5C])}$$$$ (last 3' nucleoside missing)” displayed a 3 h FOB score of 6 score 0-7.
Substance “RNA1{[moe]([m5C])[sp].[moe](T)p.[moe](A)p.[moe](A)p.[moe]([m5C])[sp].d(T)[sp].d(G)[sp].d(G)[sp].d(T)[sp].d(T)[sp].d(T)[sp].d(G)[sp].d([m5C])[sp].[moe]([m5C])p.[moe]([m5C])p.[moe](T)[sp].[moe](T)}$$$$ (last 3' nucleoside missing)” showed a 3 h FOB score of 7 score 0-7.
For the substance “RNA1{[moe](G)[sp].[moe](T)p.[moe](A)p.[moe]([m5C])p.[moe](A)p.d(T)[sp].d(T)[sp].d(T)[sp].d(T)[sp].d(A)[sp].d(A)[sp].d([m5C])[sp].d([m5C])[sp].d([m5C])[sp].d(T)[sp].[moe](T)p.[moe](T)p.[moe](G)[sp].[moe](A)}$$$$ (last 3' nucleoside missing)”, the 3 h FOB score worked out at 2.5 score 0-7.
Regarding “RNA1{[moe](G)[sp].[moe](T)p.[moe](A)p.[moe](G)p.[moe](T)p.d(G)[sp].d(T)[sp].d(T)[sp].d(T)[sp].d(G)[sp].d(G)[sp].d(G)[sp].d(A)[sp].d(T)[sp].d(G)[sp].[moe]([m5C])p.[moe](T)p.[moe](T)[sp].[moe]([m5C])}$$$$ (last 3' nucleoside missing)”, the 3 h FOB score worked out at 6 score 0-7.
To “RNA1{[moe](T)[sp].[moe](A)p.[moe]([m5C])p.[moe](T)p.[moe](T)[sp].d(T)[sp].d(T)[sp].d([m5C])[sp].d(T)[sp].d([m5C])[sp].d(A)[sp].d(T)[sp].d(G)[sp].[moe](T)p.[moe](G)p.[moe]([m5C])[sp].[moe](G)}$$$$ (last 3' nucleoside missing)” belongs 4.75 score 0-7; to “RNA1{[moe]([m5C])[sp].[moe]([m5C])p.[moe](T)p.[moe](A)p.[moe](T)p.[moe]([m5C])p.d(A)[sp].d(T)[sp].d([m5C])[sp].d(A)[sp].d(T)[sp].d(T)[sp].d(T)[sp].d(T)[sp].d([m5C])[sp].d([m5C])[sp].[moe](A)p.[moe](G)[sp].[moe](G)}$$$$ (last 3' nucleoside missing)”, 1.25 score 0-7; to “RNA1{[moe](A)[sp].[moe](A)p.[moe](G)p.[moe](T)p.[moe](T)p.d([m5C])[sp].d([m5C])[sp].d([m5C])[sp].d(A)[sp].d(T)[sp].d(T)[sp].d(G)[sp].d([m5C])[sp].d(A)[sp].d(T)[sp].[moe](T)p.[moe](G)p.[moe](T)[sp].[moe](T)}$$$$ (last 3' nucleoside missing)”, 6 score 0-7.
On to “RNA1{[moe]([m5C])[sp].[moe](T)p.[moe](G)p.[moe](G)p.[moe](A)p.[moe](T)p.d(T)[sp].d([m5C])[sp].d(T)[sp].d(G)[sp].d(T)[sp].d(A)[sp].d([m5C])[sp].d(T)[sp].d(T)[sp].d(T)[sp].[moe](T)p.[moe]([m5C])[sp].[moe](T)}$$$$ (last 3' nucleoside missing)”, for which the 3 h FOB score was 1 score 0-7.
In the case of “RNA1{[moe](T)[sp].[moe](G)p.[moe](T)p.[moe](A)p.d([m5C])[sp].d(T)[sp].d(T)[sp].d([m5C])[sp].d(A)[sp].d([m5C])[sp].d(A)[sp].d(T)[sp].d(T)[sp].d(T)[sp].[moe](G)p.[moe](G)p.[moe](A)p.[moe](G)[sp].[moe]([m5C])}$$$$ (last 3' nucleoside missing)” it was 1 score 0-7; in that of “RNA1{[moe]([m5C])[sp].[moe](A)p.[moe](G)p.[moe]([m5C])p.[moe](A)p.d(T)[sp].d(G)[sp].d(A)[sp].d(T)[sp].d([m5C])[sp].d(T)[sp].d(T)[sp].d(G)[sp].d(T)[sp].d(G)[sp].[moe](T)p.[moe](A)p.[moe](T)[sp].[moe](A)}$$$$ (last 3' nucleoside missing)”, 2.25 score 0-7; in that of “RNA1{[moe](T)[sp].[moe](G)p.[moe](G)p.[moe](T)p.[moe](G)p.d(G)[sp].d(T)[sp].d(G)[sp].d(T)[sp].d(G)[sp].d([m5C])[sp].d(G)[sp].d([m5C])[sp].d(A)[sp].d(T)[sp].[moe](G)p.[moe](T)p.[moe](A)[sp].[moe](G)}$$$$ (last 3' nucleoside missing)”, 6.5 score 0-7.
For the substance “RNA1{[moe](A)[sp].[moe](A)p.[moe](T)p.[moe](A)p.[moe](T)p.d(T)[sp].d([m5C])[sp].d([m5C])[sp].d(A)[sp].d(T)[sp].d(A)[sp].d([m5C])[sp].d(A)[sp].d(G)[sp].d(A)[sp].[moe](T)p.[moe]([m5C])p.[moe](G)[sp].[moe]([m5C])}$$$$ (last 3' nucleoside missing)”, the 3 h FOB score was 2.5 score 0-7.
To “RNA1{[moe](T)[sp].[moe](G)p.[moe](G)p.[moe](T)p.[moe](G)[sp].d(G)[sp].d(T)[sp].d(G)[sp].d(T)[sp].d(G)[sp].d([m5C])[sp].d(G)[sp].d([m5C])[sp].[moe](A)p.[moe](T)p.[moe](G)[sp].[moe](T)}$$$$ (last 3' nucleoside missing)” belongs 6.25 score 0-7; to “RNA1{[moe](T)[sp].[moe]([m5C])p.[moe](T)p.[moe](G)p.[moe]([m5C])[sp].d(T)[sp].d(A)[sp].d(A)[sp].d([m5C])[sp].d(T)[sp].d(G)[sp].d(G)[sp].d(T)[sp].[moe](T)p.[moe](T)p.[moe](G)[sp].[moe]([m5C])}$$$$ (last 3' nucleoside missing)”, 2 score 0-7.
“RNA1{[moe](A)[sp].[moe](T)p.[moe](G)p.[moe]([m5C])p.[moe](A)p.d([m5C])[sp].d(T)[sp].d(G)[sp].d([m5C])[sp].d(T)[sp].d(T)[sp].d(G)[sp].d([m5C])[sp].d([m5C])[sp].d(T)[sp].[moe](G)p.[moe](G)p.[moe](A)[sp].[moe](G)}$$$$ (last 3' nucleoside missing)”: the 3 h FOB score was found to be 5 score 0-7.
Turning to “RNA1{[moe](T)[sp].[moe](A)p.[moe](A)p.[moe](G)p.[moe]([m5C])p.d(T)[sp].d(G)[sp].d(T)[sp].d(G)[sp].d([m5C])[sp].d(T)[sp].d(A)[sp].d(T)[sp].d(G)[sp].d(G)[sp].[moe](T)p.[moe](G)p.[moe](G)[sp].[moe](T)}$$$$ (last 3' nucleoside missing)”, the 3 h FOB score is 6.25 score 0-7.
